# Where “and” joins values, the source holds several entries; their conditions need not be identical. Equal values may be shown once.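 Test compounds were applied to cells in 96-well plates for 48 hours at 5 doses. At the GI50, growth is halved. At the TGI there is no net growth.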
# Key:
# Test in all cases: NCI anticancer screen, dose series, 48 h
# SK-MEL-28 melanoma = tested on: SK-MEL-28 melanoma
# SK-OV-3 ovarian = tested on: SK-OV-3 ovarian
# NCI-H522 lung = tested on: NCI-H522 lung
# NCI-H23 lung = tested on: NCI-H23 lung
# HCT-116 colon = tested on: HCT-116 colon
# SW-620 colon = tested on: SW-620 colon
# NCI-H460 lung = tested on: NCI-H460 lung
# M14 melanoma = tested on: M14 melanoma
# OVCAR-8 ovarian = tested on: OVCAR-8 ovarian
# RPMI-8226 leukemia = tested on: RPMI-8226 leukemia
Structure (SMILES),GI50 (SK-MEL-28 melanoma),TGI (SK-MEL-28 melanoma),GI50 (SK-OV-3 ovarian),TGI (SK-OV-3 ovarian),GI50 (NCI-H522 lung),TGI (NCI-H522 lung),GI50 (NCI-H23 lung),TGI (NCI-H23 lung),GI50 (HCT-116 colon),TGI (HCT-116 colon),GI50 (SW-620 colon),TGI (SW-620 colon),GI50 (NCI-H460 lung),TGI (NCI-H460 lung),GI50 (M14 melanoma),TGI (M14 melanoma),GI50 (OVCAR-8 ovarian),TGI (OVCAR-8 ovarian),GI50 (RPMI-8226 leukemia),TGI (RPMI-8226 leukemia)
CNC(=O)c1cc(COc2nnc(Nc3ccc(Cl)cc3)c3ccoc23)ccn1,7.98 µM and > 10 µM,27.7 µM and > 10 µM,3.48 µM and 9.73 µM,13.2 µM and > 10 µM,2.85 µM and 8.83 µM,11.9 µM and > 10 µM,11.1 µM and > 10 µM,37.8 µM and > 10 µM,3.32 µM and > 10 µM,11.3 µM and > 10 µM,21.1 µM and > 10 µM,56.6 µM and > 10 µM,4.21 µM and > 10 µM,20.9 µM and > 10 µM,15.7 µM and > 10 µM,54.9 µM and > 10 µM,3.66 µM and 5.78 µM,17.1 µM and > 10 µM,19.4 µM and > 10 µM,> 82.7 µM
CCOc1ccccc1NC(=O)CCC(=O)OC,,> 100 µM,,> 100 µM,,> 100 µM,,> 100 µM,,> 100 µM,,> 60.5 µM,,> 100 µM,,> 100 µM,,> 100 µM,,> 71.3 µM
COc1ccc(C#Cc2ccccc2C#CCCCCO)cc1,12.2 µM,24.8 µM,19.9 µM,39.7 µM,18.6 µM,34.9 µM,19.2 µM,40.5 µM,22.5 µM,43.7 µM,17.8 µM,34.8 µM,19.4 µM,39.9 µM,19.4 µM,36.2 µM,18.1 µM,38.6 µM,27.3 µM,72.7 µM
C(=Nc1ccccc1)C1CCCC[N-]1.C(=Nc1ccccc1)C1CCCC[N-]1.[Cu+2].[O-][Cl+3]([O-])([O-])O (stereo unspecified),20.5 µM,48.5 µM,0.704 µM,35.8 µM,13.3 µM,52.1 µM,15.1 µM,33.2 µM,7.3 µM,28.8 µM,10.4 µM,32.4 µM,11.2 µM,> 58.2 µM,7.4 µM,27.9 µM,> 39.7 µM,> 95.2 µM,3.52 µM,10.9 µM
COc1cccc2c1C(=O)c1c(O)c3c(c(O)c1C2=O)CC(O)(C(C)=O)CC3OC1CC(N)C(O)C(C)O1 (stereo unspecified),0.104 µg/mL,0.607 µg/mL,0.0312 µg/mL,2.68 µg/mL,0.0317 µg/mL,0.287 µg/mL,0.0174 µg/mL,0.692 µg/mL,,2.06 µg/mL,,0.47 µg/mL,,2.02 µg/mL,0.0403 µg/mL,0.705 µg/mL,0.0205 µg/mL,0.393 µg/mL,0.0159 µg/mL,0.165 µg/mL
Cc1nc2ccc(CN(C)c3ccc(C(=O)N[C@@H](CCC(=O)O)C(=O)O)s3)cc2c(=O)[nH]1,,> 100 µM,,> 100 µM,,> 100 µM,2.62 µM,> 100 µM,,> 100 µM,,> 100 µM,,> 100 µM,,> 100 µM,,> 100 µM,,> 100 µM
N#C/C(=C\c1ccccc1O)C(N)=O,,> 100 µM,,> 100 µM,,> 100 µM,,> 100 µM,,> 100 µM,,> 100 µM,,> 100 µM,,> 100 µM,,> 100 µM,,> 100 µM
Cc1ccc(C)c(NC(=O)C(=O)CC(=O)C2CCOC2=O)c1 (stereo unspecified),,> 100 µM,,> 100 µM,,> 100 µM,,> 100 µM,,> 100 µM,,> 100 µM,,> 100 µM,,> 100 µM,,> 100 µM,,> 100 µM
O=C(/C=C/c1ccc(B(O)O)cc1)/C=C/c1ccc(B(O)O)cc1,2.26 µM,5.21 µM,3.65 µM,14.5 µM,4.07 µM,15.7 µM,2.85 µM,8.69 µM,0.343 µM,1.21 µM,1.79 µM,4.02 µM,8.19 µM,23.6 µM,2.23 µM,5.9 µM,9.39 µM,22 µM,2.51 µM,8.21 µM
Cc1ccc(C(=O)N(CCCN)[C@@H](c2nc3cc(Cl)ccc3c(=O)n2Cc2ccccc2)C(C)C)cc1,1.11 µM and 1.15 µM,2.5 µM and 2.42 µM,< 0.01 µM,1.65 µM and 2.19 µM,< 0.01 µM,,< 0.01 µM,1.59 µM and 1.67 µM,< 0.01 µM,1.41 µM and 1.26 µM,< 0.01 µM,1.28 µM and 1.61 µM,< 0.01 µM,1.09 µM and 1.25 µM,< 0.01 µM,< 0.01 µM,< 0.01 µM,1.52 µM and 2.11 µM,< 0.01 µM,1.72 µM
Cc1ccc(NCCCN2CCN(CCCNc3ccc(C)c4sc5ccccc5c(=O)c34)CC2)c2c(=O)c3ccccc3sc12,,> 100 µM,,> 100 µM,,> 100 µM,,> 100 µM,,> 100 µM,,> 100 µM,,> 100 µM,,> 100 µM,,> 100 µM,,> 100 µM
Cc1nc2sccn2c1/C=C1/C(=O)Nc2ccccc21,> 28.5 µM,> 100 µM,24 µM,> 93.3 µM,1.85 µM,22 µM,> 30.3 µM,> 100 µM,3.4 µM,20.2 µM,3.06 µM,> 100 µM,5.05 µM,> 100 µM,3.71 µM,> 100 µM,12.7 µM,> 66.9 µM,7.16 µM,> 100 µM
O=[N+]([O-])c1ccc(Nc2ccccc2-c2ccccc2)c2nonc12,17.2 µM,45.3 µM,22 µM,> 75.7 µM,11.6 µM,37.5 µM,8.63 µM,26.1 µM,13.9 µM,31.6 µM,18 µM,44.8 µM,13.1 µM,42.3 µM,13.3 µM,30.6 µM,21.1 µM,75.9 µM,6.91 µM,> 100 µM
Cc1cccc(C(=O)c2cccc3ccccc23)c1C(=O)O,,> 100 µM,,> 100 µM,,> 100 µM,,> 100 µM,,> 100 µM,,> 100 µM,,> 100 µM,,> 100 µM,,> 100 µM,,> 100 µM
CCCN(CCC)CCCNCc1cc(I)cc(C)c1O,15.4 µM,28.9 µM,16.3 µM,31 µM,16.9 µM,31.1 µM,15.2 µM,33.5 µM,7.9 µM,20.5 µM,14.3 µM,27.4 µM,13.3 µM,26 µM,12.8 µM,25.4 µM,17.4 µM,35.7 µM,10.8 µM,27.2 µM
CC(=O)N1CCN(C2=Nc3ccccc3CO2)C1=S,> 100 µM,> 100 µM,> 100 µM,> 100 µM,49.2 µM,> 100 µM,> 100 µM,> 100 µM,89.8 µM,> 100 µM,92.5 µM,> 100 µM,70.5 µM,> 100 µM,51.3 µM,> 100 µM,> 100 µM,> 100 µM,41.4 µM,> 100 µM
COC(=O)Cc1cc(OC)c(OC)cc1Br,,> 100 µM,,> 100 µM,,> 100 µM,,> 100 µM,,> 100 µM,,> 100 µM,,> 100 µM,,> 100 µM,,> 100 µM,,> 100 µM
Cc1cc(C)nc(NC(N)=NCCc2ccccc2)n1,3.59 µM,33.6 µM,2.65 µM,28.9 µM,6.02 µM,65.9 µM,7.02 µM,> 100 µM,2.78 µM,> 100 µM,3.51 µM,> 100 µM,3.43 µM,> 100 µM,2.8 µM,24.2 µM,3.69 µM,34.8 µM,6.45 µM,> 100 µM
O=C(c1ccccc1)c1c(NCC(O)CN2CCCC2)n(Cc2ccccc2)c(=O)n(Cc2ccccc2)c1=O (stereo unspecified),17.6 µM,32.3 µM,34 µM,> 100 µM,19.8 µM,35.6 µM,20 µM,44.1 µM,15 µM,28.2 µM,15.6 µM,30.4 µM,19.8 µM,38.9 µM,17.5 µM,33.9 µM,18.5 µM,36.2 µM,19.3 µM,48.4 µM
CCSc1nnc2c(-c3ccccc3)n[nH]c2n1,,> 100 µM,,> 100 µM,,> 100 µM,,> 100 µM,,> 100 µM,,> 100 µM,,> 100 µM,,> 100 µM,,> 100 µM,,> 100 µM
O=C1c2ccccc2C2(O)Nc3cc(O)ccc3C12O (stereo unspecified),,> 100 µM,,> 100 µM,,> 100 µM,,> 100 µM,,> 100 µM,,> 100 µM,,> 100 µM,,> 100 µM,,> 100 µM,,> 100 µM
CC(C)[C@](O)(c1ccc2cc(OC(F)F)c(OC(F)F)cc2c1)c1cn[nH]n1,18.5 µM and 19.6 µM,36.9 µM and 40.8 µM,14.6 µM and 17.7 µM,38.6 µM and 45.5 µM,16.4 µM and 14.8 µM,36.5 µM and 35.4 µM,16.8 µM and 15.8 µM,40.1 µM and 35.2 µM,15.2 µM and 15 µM,31.3 µM and 30.2 µM,21 µM and 18.5 µM,44.9 µM and 38.5 µM,18.9 µM and 17.7 µM,34.9 µM and 34.3 µM,18.5 µM and 15.4 µM,42.2 µM and 32.6 µM,29.6 µM and 26.4 µM,81.1 µM and 62.5 µM,24.9 µM and 18.2 µM,68.4 µM and 53 µM
COc1ccc(-c2[nH]ncc2-c2cc3c(c(OC)c2)OCC(=O)N3)cc1,5.19 µM,> 100 µM,0.715 µM,> 100 µM,0.247 µM,6.33 µM,1.46 µM,> 77.7 µM,0.403 µM,> 100 µM,0.356 µM,> 54 µM,0.365 µM,4.79 µM,0.384 µM,> 89.2 µM,1.17 µM,> 50.1 µM,0.796 µM,18.9 µM
CN1C(=O)c2c(ccc3c2OCO3)C2C(O)Cc3cc4c(cc3C21)OCO4 (stereo unspecified),,> 100 µM,,8.37 µM,,9.28 µM,,> 100 µM,,> 100 µM,,> 100 µM,,> 100 µM,,> 100 µM,,22.9 µM,,> 100 µM
Cc1ccccc1NC(=S)Nc1ccccn1,> 100 µM,> 100 µM,> 100 µM,> 100 µM,> 100 µM,> 100 µM,85.3 µM,> 100 µM,> 100 µM,> 100 µM,> 100 µM,> 100 µM,> 100 µM,> 100 µM,> 100 µM,> 100 µM,> 100 µM,> 100 µM,62.7 µM,> 100 µM
COC1=CC(c2ccc[nH]2)=N/C1=C\c1[nH]c(C)c(C(=O)OCc2ccccc2)c1C,0.353 µM,1.71 µM,0.824 µM,4.86 µM,0.0968 µM,1.15 µM,0.141 µM,1.74 µM,0.0321 µM,1.16 µM,0.0346 µM,1.21 µM,0.0476 µM,1.2 µM,0.0448 µM,0.817 µM,0.11 µM,1.75 µM,0.116 µM,1.8 µM
CC1=NN(C(=O)c2ccccc2O)C(=O)/C1=C/c1ccc([N+](=O)[O-])cc1,4.7 µM,> 100 µM,1.6 µM,> 100 µM,2.03 µM,7.06 µM and 12.9 µM,0.654 µM,4.77 µM,0.328 µM,,3.15 µM,> 100 µM,0.414 µM,> 100 µM,3.01 µM,40.7 µM,1.44 µM,> 100 µM,0.784 µM,> 100 µM
Cc1ccc(C(=O)O/N=C2/CCCC/C2=C\c2ccccc2)cc1,,65.3 µM,,> 100 µM,,31.7 µM,,> 100 µM,,32.7 µM,,> 100 µM,,> 100 µM,,> 100 µM,,> 100 µM,,> 100 µM
COc1cc2c(cc1OC)C13CCN4C=C5CCOC6CC(=O)N2C1C6C5CC43 (stereo unspecified),,> 100 µM,,> 100 µM,,> 100 µM,,> 100 µM,,> 100 µM,,> 100 µM,,> 100 µM,,> 100 µM,,> 100 µM,,> 100 µM
COc1cc2c(cc1O)C=NCC2,,> 100 µM,,> 100 µM,,> 100 µM,,> 100 µM,,> 100 µM,,> 100 µM,,> 100 µM,,> 100 µM,,> 100 µM,,> 100 µM
